The text below walks through data of patent US10174056B2, “Substituted pyrrolo[2,3-d]pyrimidines as janus kinase inhibitors” (WUXI FORTUNE PHARMACEUTICAL CO., LTD, priority 2015, dated 2019).

Some results are limits rather than exact numbers.

The target of one data set is T1, JAK1 (Homo sapiens, UniProt P23458).
T1 construct: purchased Life technology
Briefly: Test for in vitro activity of JAK1 kinase (LANCE Ultra ULight peptide). To be noted: recombinant human JAK1, 38 uM ATP, 90 min. Format: biochemical. The procedure:
(§1) Test for in vitro activity of Jak1, Jak2, and Jak3 Kinase
(§2) Recombinant human […] of JAK1, JAK2 and JAK3 were purchased from Life technology. LANCE Ultra ULight™-JAK-1 (Tyr1023) peptide and LANCE Eu-W1024 Anti-phosphotyrosine (PT66) were purchased from PerkinElmer. Multimode ELISA, Envison(PerkinElmer) reader was used.
(§3) The test compound was diluted according to gradient of three times concentration with a final concentration of from 10 uM to 0.17 nM at 11 concentrations totally, each concentration with two complex holes, and the content of DMSO in the detection was 1%.
2 nM of JAK1 Protein kinase, 50 nM of LANCE Ultra ULight™-JAK-1(Tyr1023) peptide, 38 uM of ATP, 50 mM of HEPES (pH 7.5), 10 mM of MgCl2, 1 mM of EGTA, 2 mM of DTT, 0.01% BRIJ-35. Checker board is White Proxiplate 384-Plus plate (PerkinElmer). The reaction was carried out at room temperature for 90 min and the reaction system was 10 ul.
(§4) 10 ul detection reagent was added to reaction plate, wherein the final concentration of LANCE Eu-W1024 Anti-phosphotyrosine (PT66) was 2 nM, the final concentration of EDTA was […], incubated at room temperature for 60 min, with Envison reader.
(§5) The reading was converted to inhibition ratio (%) by the following formula: the inhibition ratio (%)=([…])/(Max−Min)×100%.
A general note: In TR-FRET formats the signal depends on donor and acceptor labels being close together.

For another data set, the target named is T2, JAK2 (Homo sapiens, UniProt O60674).
T2 construct: purchased Life technology
Briefly: Test for in vitro activity of JAK2 kinase (LANCE Ultra ULight peptide). Format: biochemical. The settings on record: recombinant human JAK2, 12 uM ATP, 60 min. The procedure:
as §1, §2, §3
0.02 nM of JAK2 Protein kinase, 50 nM of LANCE Ultra ULight™-JAK-1(Tyr1023) peptide, 12 uM of ATP, 50 mM of HEPES (pH 7.5), 10 mM of MgCl2, 1 mM of EGTA, 2 mM of DTT, 0.01% BRIJ-35. Checker board is White Proxiplate 384-Plus plate (PerkinElmer). The reaction was carried out at room temperature for 60 min and the reaction system was 10 ul.
as §4, §5

A short description of data set [1]: Pharmacokinetic (PK) test in mice. Format: in vivo, DBA/1 mice. To be noted: for bioavailability / AUC(0-inf) / Cmax / half-life: mouse, plasma, po, DBA/1 mice, mean; for bioavailability: gavage vs tail vein injection; for AUC(0-inf) / Cmax / half-life: tail vein injection and gavage. The procedure: Pharmacokinetic (PK) Test
The clear solution obtained by dissolving the test compound was respectively administrated by tail vein injection and gavage into the mice DBA/1 mice (overnight fasting, 7 to 8 weeks old). After administration of the test compound, the mice in the vein injection group at 0.083, 0.25, 0.5, 1, 2, 4, 8 and 24 hours, and gavage group at 0.25, 0.5, 1, 2, 4, 8 and 24 hours, blood is collected from the mandibular vein and centrifuged to obtain plasma. The plasma concentration was determined by LC-MS/MS. The pharmacokinetic parameters were calculated by non-compartmental model linear logarithmic trapezoid method with using WinNonlin™ Version 6.3 pharmacokinetic software.

Data set [2] relates to rat adjuvant arthritis model. Briefly: Rat adjuvant-induced arthritis model efficacy test. Format: in vivo. The settings on record: Lewis rats, oral; for AUC (%): two weeks of administration from day 13; for arthritis inhibitory activity (in words): swollen foot volume and score. The procedure:
Rat Adjuvant-Induced Arthritis Model Efficacy Test
The effect of the compounds of the present invention on the treatment of arthritis was verified by rat adjuvant arthritis models.
Female, Lewis rats with body weight 160-180 g were anesthetized with isoflurane and was injected with 0.1 ml of mycobacterium tuberculosis suspension subcutaneously in the left posterior foot. After modeling for 13 days, the corresponding test compound was administrated, such as that the rats were respectively administrated with 1 mpk, 3 mpk, 10 mpk of the test compound WX614, 10 mpk of the test compound WX552, and 10 mpk of the test compound WX591 dissolved in a mixed solvent of DMSO/PEG400/H2O, and orally administered to female Lewis rats (10 rats in each dose group). Two weeks after continuous administration, the state of the rats was observed and the volume of the swollen foot was recorded and scored.

In data set [3] the test system is mouse collagen-induced arthritis model. Briefly: Mouse collagen-induced arthritis model efficacy test. Format: in vivo, DBA/1 male mice. To be noted: CIA mice, oral, 2 weeks. The method, then: Mouse Collagen-Induced Arthritis Model Efficacy Test
The effect of the compounds of the present invention on the treatment of arthritis was verified by the mouse collagen-induced arthritis model.
The DBA/l male mice were selected and injected subcutaneously with the emulsions of collagen and Freund's complete adjuvant at base of tail on day 0 and day 21, and on day 29 the mice was divided into groups. The compound WX6144 (3 mpk, 10 mpk, 30 mpk) was dissolved in DMSO/PEG400/H2O [5/20/75 (v/v/v)] and administered orally to CIA mice (Shanghai SLAC Laboratory Animal Co., Ltd, 10 mice in each dose group), and the mice were continuously administrated for 2 weeks, the weight of mice were recorded and the arthritis of mice was clinically scored.

T1 sequence (P23458 whole entry): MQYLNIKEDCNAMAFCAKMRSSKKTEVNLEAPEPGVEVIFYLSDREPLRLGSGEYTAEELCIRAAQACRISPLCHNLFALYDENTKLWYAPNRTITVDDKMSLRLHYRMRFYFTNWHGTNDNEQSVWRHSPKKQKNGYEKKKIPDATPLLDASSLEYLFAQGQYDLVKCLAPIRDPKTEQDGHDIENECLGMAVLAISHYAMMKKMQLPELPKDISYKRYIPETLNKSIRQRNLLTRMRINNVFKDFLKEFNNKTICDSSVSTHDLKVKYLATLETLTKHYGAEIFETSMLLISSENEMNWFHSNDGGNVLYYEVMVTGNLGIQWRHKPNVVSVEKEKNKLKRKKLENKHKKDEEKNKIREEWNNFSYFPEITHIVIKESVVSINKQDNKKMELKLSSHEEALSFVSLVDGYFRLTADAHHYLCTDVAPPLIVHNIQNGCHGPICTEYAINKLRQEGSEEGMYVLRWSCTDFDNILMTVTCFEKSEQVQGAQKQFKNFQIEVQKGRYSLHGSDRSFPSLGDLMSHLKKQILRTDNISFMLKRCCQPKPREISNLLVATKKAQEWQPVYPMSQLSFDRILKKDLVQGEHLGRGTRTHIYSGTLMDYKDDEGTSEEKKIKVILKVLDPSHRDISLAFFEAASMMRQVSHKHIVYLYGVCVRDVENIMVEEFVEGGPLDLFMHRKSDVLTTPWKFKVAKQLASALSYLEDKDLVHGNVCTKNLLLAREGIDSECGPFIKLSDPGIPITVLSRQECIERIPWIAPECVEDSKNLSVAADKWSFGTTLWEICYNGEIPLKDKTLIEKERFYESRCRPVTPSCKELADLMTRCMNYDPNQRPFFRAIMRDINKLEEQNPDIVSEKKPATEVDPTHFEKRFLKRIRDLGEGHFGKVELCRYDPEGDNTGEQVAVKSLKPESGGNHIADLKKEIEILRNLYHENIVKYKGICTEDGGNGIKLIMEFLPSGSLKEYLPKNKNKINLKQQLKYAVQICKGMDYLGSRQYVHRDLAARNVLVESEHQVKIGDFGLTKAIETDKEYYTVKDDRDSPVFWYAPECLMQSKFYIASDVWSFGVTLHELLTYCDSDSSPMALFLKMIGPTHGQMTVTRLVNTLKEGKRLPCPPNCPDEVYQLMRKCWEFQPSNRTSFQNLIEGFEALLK
T2 sequence (O60674 whole entry): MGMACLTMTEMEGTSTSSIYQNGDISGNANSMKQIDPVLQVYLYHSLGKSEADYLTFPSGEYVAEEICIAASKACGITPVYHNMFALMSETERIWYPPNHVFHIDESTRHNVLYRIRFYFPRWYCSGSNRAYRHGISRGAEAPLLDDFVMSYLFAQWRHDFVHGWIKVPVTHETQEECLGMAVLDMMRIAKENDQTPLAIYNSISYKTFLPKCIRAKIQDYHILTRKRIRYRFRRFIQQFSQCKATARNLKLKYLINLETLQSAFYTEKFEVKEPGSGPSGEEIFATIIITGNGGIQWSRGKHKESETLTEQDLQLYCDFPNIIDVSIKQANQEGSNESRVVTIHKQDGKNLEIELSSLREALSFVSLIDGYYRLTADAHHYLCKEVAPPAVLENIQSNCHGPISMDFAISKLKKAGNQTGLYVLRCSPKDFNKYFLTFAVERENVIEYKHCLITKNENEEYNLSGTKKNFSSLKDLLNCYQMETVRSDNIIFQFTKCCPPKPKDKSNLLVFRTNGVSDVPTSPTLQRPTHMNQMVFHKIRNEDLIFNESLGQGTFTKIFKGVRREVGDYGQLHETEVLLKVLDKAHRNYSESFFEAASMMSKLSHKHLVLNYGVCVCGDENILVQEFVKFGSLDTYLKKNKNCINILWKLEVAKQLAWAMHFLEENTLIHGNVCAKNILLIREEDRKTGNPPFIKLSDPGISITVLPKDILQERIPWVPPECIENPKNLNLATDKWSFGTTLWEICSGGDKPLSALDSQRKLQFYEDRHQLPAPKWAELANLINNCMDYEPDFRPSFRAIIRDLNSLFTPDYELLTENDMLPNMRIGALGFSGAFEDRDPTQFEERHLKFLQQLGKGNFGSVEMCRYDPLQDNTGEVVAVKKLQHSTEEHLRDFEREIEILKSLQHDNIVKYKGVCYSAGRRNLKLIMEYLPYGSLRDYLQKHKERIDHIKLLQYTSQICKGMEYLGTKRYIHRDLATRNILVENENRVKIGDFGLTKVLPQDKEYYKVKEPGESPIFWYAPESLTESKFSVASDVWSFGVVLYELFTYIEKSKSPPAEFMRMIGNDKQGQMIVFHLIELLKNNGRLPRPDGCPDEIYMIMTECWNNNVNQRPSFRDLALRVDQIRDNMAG

The IC50 is the midpoint of a concentration-inhibition curve. One may read the bioavailability as the share of a dose that reaches the circulation, judged against a reference dose that is usually intravenous. Higher therefore signals good availability. By AUC(0-inf) is commonly meant the area under the concentration-time curve extrapolated to infinity. Low readings indicate low exposure, high ones high exposure. For orientation: Cmax means the maximum level reached in the sampled fluid or tissue. By half-life is commonly meant the time needed for the level to fall by half in the phase considered. Consider `CN(c1ncnc2[nH]ccc12)C1CCn2cc(CC#N)nc2C1` (racemic) [WX552, 2-[7-[methyl(7H-pyrrolo[2,3-d]pyrimidine-4-yl)amino]-5,6,7,8-tetrahydroimidazo[1,2-a]pyridine-2-yl]acetonitrile], for which, at JAK1, the 50% inhibitory concentration (IC50) lay within 10 to 100 nM. In addition, on JAK2, the IC50 is 100 to 1000 nM. Also, in data set [1], the “oral bioavailability and exposure in mice (in words)” value (from here on “oral bioavailability and exposure”) is “good oral bioavailability and higher exposure”; the bioavailability was determined as 74.4%; the AUC(0-inf) turned out to be 11.4 µM·h; the Cmax was determined as 3.72 µM. This compound also had a half-life in data set [1] of 1.18 h. Further, the “AUC (%)” value in data set [2] (10 mg/kg) stood at 31.7%. For the same compound, in data set [2], the “arthritis inhibitory activity (in words)” value is on record as “good arthritis inhibitory activity”.
Regarding `CN(c1ncnc2[nH]ccc12)C1CCn2cc(C#N)nc2C1` (racemic) [WX591, 7-[methyl-[7 hydropyrrolo[2,3-d]pyrimidine-4-yl]amino]-5,6,7,8-tetrahydroimidazo [1,2-a]pyridine-2-nitrile], the IC50 on JAK1 lay within 10 to 100 nM. On JAK2, the IC50 is 100 to 1000 nM. For the same compound, in data set [1], the “oral bioavailability and exposure” value is “good oral bioavailability and higher exposure”; the bioavailability amounted to 87%; the AUC(0-inf) is 10.5 µM·h; the Cmax is 3.02 µM. This compound gave a half-life in data set [1] of 2.26 h. Moreover, in data set [2] (10 mg/kg), the “AUC (%)” value was determined as 44.7%. The “arthritis inhibitory activity (in words)” value in data set [2] is reported as “good arthritis inhibitory activity”.
As to `CN(c1ncnc2[nH]ccc12)C1CCn2cc(CC#N)nc2C1` (single isomer, unassigned) [WX612, (S or R) 2-[7-[methyl(7H-pyrrolo[2,3-d]pyrimidine-4-yl)amino]-5,6,7,8-tetrahydroimidazo[1,2-a]pyridine-2-yl]acetonitrile], the IC50 on JAK1 and at JAK2 was above 1000 nM each time.
For `CN(c1ncnc2[nH]ccc12)C1CCn2cc(CC#N)nc2C1` (single isomer, unassigned) [WX613, (R or S)2-[7-[methyl(7H-pyrrolo[2,3-d]pyrimidine-4-yl)amino]-5,6,7,8-tetrahydroimidazo [1,2-a]pyridine-2-yl]acetonitrile], the IC50 was in the range of 10 to 100 nM on JAK1 and 100 to 1000 nM on JAK2.
Consider `CN(c1ncnc2[nH]ccc12)[C@H]1CCn2cc(C#N)nc2C1` (single isomer, unassigned) [WX614, (S or R) 7-[methyl-[7 hydropyrrolo[2,3-d]pyrimidine-4-yl]amino]-5,6,7,8-tetrahydroimidazo[1,2-a]pyridine-2-nitrile], for which the results for the IC50 on JAK1 and at JAK2 were at most 10 nM and 10 to 100 nM, respectively. In addition, in data set [1], the “oral bioavailability and exposure” value is “good oral bioavailability and higher exposure”. In data set [1], this compound gave a bioavailability of 73.9%. The AUC(0-inf) in data set [1] was 10.2 µM·h. The compound further displayed a Cmax in data set [1] of 3.09 µM. Also, the half-life in data set [1] was 1.76 h. The “AUC (%)” value in data set [2] (1 mg/kg) was 20.2%; in data set [2] (3 mg/kg) it was 50.2%; in data set [2] (10 mg/kg) it was 61.8%; in data set [3] (3 mg/kg) it was 42.4%; in data set [3] (10 mg/kg), 51.3%; in data set [3] (30 mg/kg) it was 82.5%. Also, the “arthritis inhibitory activity (in words)” value in data set [2] was “good arthritis inhibitory activity”. Also, in data set [3] (clinical score), the “therapeutic effect on mouse rheumatoid arthritis (in words)” value is “significant therapeutic effect”.
In the case of `CN(c1ncnc2[nH]ccc12)[C@@H]1CCn2cc(C#N)nc2C1` (single isomer, unassigned) [WX615, (R or S) 7-[methyl-[7 hydropyrrolo[2,3-d]pyrimidine-4-yl]amino]-5,6,7,8-tetrahydroimidazo [1,2-a]pyridine-2-nitrile], the IC50 on JAK1 and on JAK2 was above 1000 nM in each case.
Regarding `CCOC(=O)c1cn2c(n1)CC(N(C)c1ncnc3[nH]ccc13)CC2` (centres unmarked) [WX550, ethyl 7-[methyl(7H-pyrrolo[2,3-d]pyrimidine-4-yl)amino]-5,6,7,8-tetrahydroimidazo[1,2-a]pyridine-2-carboxylate], the IC50 at JAK1 is 100 to 1000 nM; on JAK2, above 1000 nM.
For `CN(c1ncnc2[nH]ccc12)C1CCn2cc(CO)nc2C1` (centres unmarked) [WX551], in that order: 100 to 1000 nM and above 1000 nM.
The corresponding values for `CN(c1ncnc2[nH]ccc12)C1CCn2cc(C(=O)NCC(F)(F)F)nc2C1` (centres unmarked) [WX579] are 100 to 1000 nM and above 1000 nM.
The corresponding values for `CN(c1ncnc2[nH]ccc12)C1CCn2cc(C(=O)NCC(F)F)nc2C1` (centres unmarked) [WX580] are 100 to 1000 nM and above 1000 nM.
As to `CN(c1ncnc2[nH]ccc12)C1CCn2cc(C(=O)NCC#N)nc2C1` (centres unmarked) [WX581], the figures for the IC50 on JAK1 and at JAK2 were 100 to 1000 nM and above 1000 nM, respectively.
Take `CN(c1ncnc2[nH]ccc12)C1CCn2cc(C(=O)NCCS(C)(=O)=O)nc2C1` (centres unmarked) [WX592]: the IC50 at JAK1 and at JAK2 was above 1000 nM throughout.
Turning to `CN(c1ncnc2[nH]ccc12)C1CCn2cc(C(=O)NC3CC(F)(F)C3)nc2C1` (centres unmarked) [WX593, N-(3,3-difluorocyclobutyl)-7-[methyl(7H-pyrrolo[2,3-d]pyrimidine-4-yl]amino]-5,6,7,8-tetrahydroimidazo [1,2-a]pyridine-2-carboxamide], the IC50 on JAK1 and on JAK2 was above 1000 nM in each case.
Regarding `CNC(=O)c1cn2c(n1)CC(N(C)c1ncnc3[nH]ccc13)CC2` (centres unmarked) [WX604], the IC50 at JAK1 was 100 to 1000 nM; at JAK2 it was above 1000 nM.
For the compound `CNCc1cn2c(n1)CC(N(C)c1ncnc3[nH]ccc13)CC2` (centres unmarked) [WX605, N-methyl-N-[2-(methylaminomethyl)-5,6,7,8-tetrahydroimidazo[1,2-a]pyridine-7-yl]-7H-7H-pyrrolo[2,3-d]pyrimidine-4-amine], the IC50 on JAK1 and on JAK2 was above 1000 nM in each case.
For `CN(c1ncnc2[nH]ccc12)C1CCn2cc(CNS(C)(=O)=O)nc2C1` (centres unmarked) [WX606, N-((7-(methyl-(7H-pyrrolo[2,3-d]pyrimidine-4-yl)amine)-5,6,7,8-tetrahydroimidazo[1,2-a]pyridine-2-yl)methyl)methanesulfonamide], the IC50 on JAK1 is 100 to 1000 nM; on JAK2, above 1000 nM.
